Assay results: PubChem BioAssay AID248 (DTP/NCI, 2004)
“And” between values parts separate entries of the source, which are not always exact repeats. Equal values may be shown once. Toxic doses and inconclusive results are not listed. No stated cut-off is given here; in the data, active means T/C of 150% or more; inactive means T/C below 125%.

Tested on: L1210 leukemia ip in BDF1 mice, survival T/C
Test: NCI In Vivo Anticancer Drug Screen. Data for tumor model L1210 Leukemia (intraperitoneal) in B6D2F1 (BDF1) mice
Conditions: endpoint: mean survival time, higher = longer survival
Outline: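 Each compound was tested against a transplantable tumor grown in mice. The endpoint was survival, with treated animals benchmarked against vehicle controls as a simple ratio.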

[1] = dose: 100.0 mg/kg/injection, schedule: Q01DX009 (ip), vehicle: Klucel (hydroxypropylcellulose) (HPC)
[2] = dose: 75.0 mg/kg/injection, schedule: Q01DX001 (ip), vehicle: saline
[3] = dose: 150.0 mg/kg/injection, schedule: Q01DX001 (ip), vehicle: saline
[4] = dose: 100.0 mg/kg/injection, schedule: Q01DX001 (ip), vehicle: saline
[5] = dose: 200.0 mg/kg/injection, schedule: Q01DX001 (ip), vehicle: saline
[6] = dose: 400.0 mg/kg/injection, schedule: Q01DX001 (ip), vehicle: saline
[7] = dose: 100.0 mg/kg/injection, schedule: Q04DX002 (ip), vehicle: saline with Tween-80
[8] = dose: 200.0 mg/kg/injection, schedule: Q04DX002 (ip), vehicle: saline with Tween-80
[9] = dose: 100.0 mg/kg/injection, schedule: Q01DX009 (ip), vehicle: saline with Tween-80
[10] = dose: 100.0 mg/kg/injection, schedule: Q04DX003 (ip), vehicle: saline with Tween-80
[11] = dose: 200.0 mg/kg/injection, schedule: Q01DX009 (ip), vehicle: saline with Tween-80
[12] = dose: 200.0 mg/kg/injection, schedule: Q04DX003 (ip), vehicle: saline with Tween-80
[13] = dose: 400.0 mg/kg/injection, schedule: Q04DX003 (ip), vehicle: saline with Tween-80
[14] = dose: 200.0 mg/kg/injection, schedule: Q01DX009 (ip), vehicle: Klucel (hydroxypropylcellulose) (HPC)
[15] = dose: 400.0 mg/kg/injection, schedule: Q01DX009 (ip), vehicle: Klucel (hydroxypropylcellulose) (HPC)
[16] = dose: 100.0 mg/kg/injection, schedule: Q04DX002 (ip), vehicle: Klucel (hydroxypropylcellulose) (HPC)
[17] = dose: 100.0 mg/kg/injection, schedule: Q04DX003 (ip), vehicle: Klucel (hydroxypropylcellulose) (HPC)
[18] = dose: 200.0 mg/kg/injection, schedule: Q04DX003 (ip), vehicle: Klucel (hydroxypropylcellulose) (HPC)
[19] = dose: 50.0 mg/kg/injection, schedule: Q01DX009 (ip), vehicle: saline
[20] = dose: 100.0 mg/kg/injection, schedule: Q01DX009 (ip), vehicle: saline
[21] = dose: 50.0 mg/kg/injection, schedule: Q04DX003 (ip), vehicle: Klucel (hydroxypropylcellulose) (HPC)

Measured: T/C

Sc1ccccc1.[Pb]
inactive: dose: 25.0 mg/kg/injection, schedule: Q01DX009 (ip), vehicle: Klucel (hydroxypropylcellulose) (HPC) 98 % of control | dose: 50.0 mg/kg/injection, schedule: Q01DX009 (ip), vehicle: Klucel (hydroxypropylcellulose) (HPC) 101 % of control | [1] 92 % of control and 87 % of control

CC1(C)OC2C(CO)OC(n3cnc4c(=O)[nH]cnc43)C2O1 (stereo not given)
inactive: [2] 102 % of control | [3] 92 % of control

CC(=O)Nc1ccc(S(=O)(=O)O)c(OC(C)=O)c1
inactive: [4] 100 % of control | [5] 93 % of control | [6] 114 % of control

CN(C)c1ccc(C=NCCCO)cc1
inactive: [7] 92 % of control | [8] 103 % of control

O=C1OCC(O)(c2ccccc2)C1c1ccccc1 (stereo not given)
inactive: dose: 55.0 mg/kg/injection, schedule: Q01DX Z (ip), vehicle: methylcellulose (MC) 98 % of control | dose: 83.0 mg/kg/injection, schedule: Q01DX Z (ip), vehicle: methylcellulose (MC) 118 % of control | dose: 125.0 mg/kg/injection, schedule: Q01DX Z (ip), vehicle: methylcellulose (MC) 104 % of control

CCOC(=O)c1cnc(SC)nc1NCc1ccco1
inactive: [9] 95 % of control | [10] 100 % of control | [11] 97 % of control | [12] 97 % of control | dose: 400.0 mg/kg/injection, schedule: Q01DX009 (ip), vehicle: saline with Tween-80 106 % of control | [13] 92 % of control

CN(C)c1ccc(/C=N/NC(=O)c2ccccc2NC(=O)c2ccccc2)cc1
inactive: [1] 89 % of control | [14] 100 % of control | [15] 89 % of control

O=[N+]([O-])c1cc(Cl)ccc1S(=O)(=O)CC(Cl)c1ccccc1 (stereo not given)
inactive: dose: 100.0 mg/kg/injection, schedule: Q01DX001 (ip), vehicle: acetone 104 % of control | dose: 100.0 mg/kg/injection, schedule: Q01DX009 (ip), vehicle: acetone 98 % of control | dose: 100.0 mg/kg/injection, schedule: Q04DX003 (ip), vehicle: acetone 108 % of control | dose: 200.0 mg/kg/injection, schedule: Q01DX001 (ip), vehicle: acetone 104 % of control | dose: 200.0 mg/kg/injection, schedule: Q01DX009 (ip), vehicle: acetone 87 % of control and 88 % of control | dose: 200.0 mg/kg/injection, schedule: Q04DX003 (ip), vehicle: acetone 100 % of control | dose: 400.0 mg/kg/injection, schedule: Q01DX001 (ip), vehicle: acetone 101 % of control | dose: 400.0 mg/kg/injection, schedule: Q01DX009 (ip), vehicle: acetone 106 % of control and 92 % of control | dose: 400.0 mg/kg/injection, schedule: Q04DX003 (ip), vehicle: acetone 100 % of control

Nc1cccc(/C=C/C=C\c2cccc([N+](=O)[O-])c2)c1
inactive: [4] 97 % of control | [5] 94 % of control | [6] 92 % of control

Cc1ccc(Cl)cc1NC(=O)c1ccccc1F
inactive: [16] 93 % of control | dose: 200.0 mg/kg/injection, schedule: Q04DX002 (ip), vehicle: Klucel (hydroxypropylcellulose) (HPC) 97 % of control | dose: 400.0 mg/kg/injection, schedule: Q04DX002 (ip), vehicle: Klucel (hydroxypropylcellulose) (HPC) 101 % of control

O=C1C2CCCC3CCCC(C(=O)N1NC1CCCCC1)C32 (stereo not given)
inactive: [7] 93 % of control | [8] 86 % of control

O=[N+]([O-])c1ccc(Cl)cc1/C=N/Nc1c2ccccc2nc2ccccc12
inactive: [4] 92 % of control

NOCc1cscn1
inactive: [4] 98 % of control | [5] 101 % of control | [6] 101 % of control

CN(C)c1cc2c3ccccc3ccc2c2ccccc12
inactive: dose: 100.0 mg/kg/injection, schedule: Q01DX001 (ip), vehicle: olive oil, sesame oil, peanut oil 100 % of control | dose: 200.0 mg/kg/injection, schedule: Q01DX001 (ip), vehicle: olive oil, sesame oil, peanut oil 103 % of control | dose: 400.0 mg/kg/injection, schedule: Q01DX001 (ip), vehicle: olive oil, sesame oil, peanut oil 102 % of control

O=S(=O)(Cl)c1ccccc1S(=O)(=O)Cl
inactive: [17] 95 % of control | [18] 93 % of control | dose: 400.0 mg/kg/injection, schedule: Q04DX003 (ip), vehicle: Klucel (hydroxypropylcellulose) (HPC) 86 % of control

O=C/C=C/c1ccc([N+](=O)[O-])cc1
inactive: [4] 104 % of control | [9] 98 % of control | [5] 102 % of control | [6] 102 % of control

CC(=O)N(N=O)c1cc(Cl)ccc1Cl
inactive: dose: 50.0 mg/kg/injection, schedule: Q01DX001 (ip), vehicle: saline 113 % of control | [4] 110 % of control | [5] 101 % of control | [6] 107 % of control

O=[N+]([O-])c1ccc(C#CS(=O)(=O)c2ccccc2)cc1
inactive: [19] 104 % of control | [20] 96 % of control | dose: 200.0 mg/kg/injection, schedule: Q01DX009 (ip), vehicle: saline 96 % of control

CO/N=C(\N)Oc1c(C)cccc1C
inactive: [1] 107 % of control | [14] 96 % of control | [15] 103 % of control

CCCCCCC(C)OC(=O)CCCc1ccc(N(CCCl)CCCl)cc1 (stereo not given)
inactive: [19] 122 % of control | [20] 116 % of control | dose: 400.0 mg/kg/injection, schedule: Q01DX009 (ip), vehicle: saline 100 % of control

NC(=O)N/C=N/N=C(N)N
inactive: dose: 15.0 mg/kg/injection, schedule: Q01DX Z (ip), vehicle: methylcellulose (MC) 101 % of control | dose: 30.0 mg/kg/injection, schedule: Q01DX Z (ip), vehicle: methylcellulose (MC) 107 % of control | dose: 60.0 mg/kg/injection, schedule: Q01DX Z (ip), vehicle: methylcellulose (MC) 108 % of control | dose: 120.0 mg/kg/injection, schedule: Q01DX Z (ip), vehicle: methylcellulose (MC) 108 % of control | dose: 240.0 mg/kg/injection, schedule: Q01DX Z (ip), vehicle: methylcellulose (MC) 94 % of control | dose: 420.0 mg/kg/injection, schedule: Q01DX Z (ip), vehicle: methylcellulose (MC) 94 % of control | dose: 600.0 mg/kg/injection, schedule: Q01DX Z (ip), vehicle: methylcellulose (MC) 86 % of control

CCCCCC/C(C)=N/O
inactive: [9] 94 % of control | [10] 106 % of control | [11] 103 % of control | [12] 95 % of control | [13] 98 % of control

Nc1nc2nc(N=Nc3ccc(C(=O)O)c(O)c3)[nH]c2c(=O)[nH]1
inactive: [17] 99 % of control | [18] 88 % of control

C=C/C=C/CCN1CC1
inactive: dose: 12.5 mg/kg/injection, schedule: Q04DX003 (ip), vehicle: Klucel (hydroxypropylcellulose) (HPC) 114 % of control | dose: 25.0 mg/kg/injection, schedule: Q04DX003 (ip), vehicle: Klucel (hydroxypropylcellulose) (HPC) 112 % of control | [21] 106 % of control

CN(C)CCCN1CCC2(CCC(CO)CC2)CC1
inactive: [4] 94 % of control | [5] 94 % of control | [6] 102 % of control

C=C(C)C1(CCCC)C(=O)NC(=O)NC1=O
inactive: [2] 104 % of control and 102 % of control | [3] 107 % of control and 100 % of control | dose: 300.0 mg/kg/injection, schedule: Q01DX001 (ip), vehicle: saline 102 % of control

CN=C(NO)c1ccccc1
inactive: dose: 100.0 mg/kg/injection, schedule: Q01DX001 (ip), vehicle: Klucel (hydroxypropylcellulose) (HPC) 107 % of control | dose: 200.0 mg/kg/injection, schedule: Q01DX001 (ip), vehicle: Klucel (hydroxypropylcellulose) (HPC) 98 % of control

O=C(NCCCl)NN1CCCCC1
inactive: [21] 113 % of control | [17] 113 % of control | [18] 113 % of control

O=C1C(O)=C(c2ccc(O)cc2)C(=O)C(O)=C1c1ccc(O)cc1
inactive: dose: 25.0 mg/kg/injection, schedule: Q04DX002 (ip), vehicle: Klucel (hydroxypropylcellulose) (HPC) 88 % of control | dose: 25.0 mg/kg/injection, schedule: Q04DX002 (oral), vehicle: saline with Tween-80 105 % of control | dose: 50.0 mg/kg/injection, schedule: Q04DX002 (ip), vehicle: Klucel (hydroxypropylcellulose) (HPC) 95 % of control | dose: 50.0 mg/kg/injection, schedule: Q04DX002 (oral), vehicle: saline with Tween-80 98 % of control | [16] 103 % of control | dose: 100.0 mg/kg/injection, schedule: Q04DX002 (oral), vehicle: saline with Tween-80 112 % of control
